One data set concerns panel of 4 panelists. Description: Organoleptic test against sucrose and baiyunoside (taste panel). The format is in vivo. The note with it: for comment: cooling effect / comment: sweetness relative to Baiyunoside / comment: bitterness / off-taste / comment: lingering / persistence of sweet taste: 0.4 mg/ml (400 ppm) in non-carbonated mineral water; for comment: bitterness / off-taste / comment: lingering / persistence of sweet taste: compounds compared with Baiyunoside; for compared to sucrose*: sweetness score, 0.4 mg/ml (400 ppm) in non-carbonated mineral water vs sucrose 20 mg/ml, 4 panelists. On the set-up: key to compared to sucrose*: 3: sweeter than the control solution; 2: sweetness comparable with the control solution; 1: less sweet than the control solution but still sweet. The text has this: Organoleptic test of the compounds of formula (I) against sucrose and baiyunoside

For data set [1] the following is noted: literature; printed as "often >100x sweeter than sucrose"; cited from earlier work.
Data set [2] in a line: Solubility in non-carbonated mineral water at the test concentration. The note with it: 0.4 mg/ml (400 ppm) in non-carbonated mineral water.
Method: The isolated pure compounds were dissolved in non-carbonated mineral water ("Fonsana Quelle") in a concentration of 0.4 mg/ml (400 ppm).
For data set [3] the following is noted: quoted from Tanaka et al.; cited from earlier work.

Like-named read-outs stand apart in the source and are kept apart here.

With `CC1=C(CCc2ccoc2)C2(C)CCC(OC3OC(COS(=O)(=O)O)C(O)C(O)C3OC3OCC(O)C(O)C3O)C(C)(C)C2CC1` (centres unmarked) [Compound A, Baiyunoside-6'-sulfate], in the data set with panel of 4 panelists, the “comment: cooling effect” value was “Shows a remarkable cooling effect”, the “comment: sweetness relative to Baiyunoside” value was “Sweeter”, the “comment: bitterness / off-taste” value is recorded as “less bitter” and the “comment: lingering / persistence of sweet taste” value (“comment: lingering / persistence” for short) is recorded as “less lingering”. Moreover, in the data set with panel of 4 panelists, the “compared to sucrose*” value came out at 3.
Take `CC1=C(CCc2ccoc2)C2(C)CCC(OC3OC(CO)C(O)C(OS(=O)(=O)O)C3OC3OCC(O)C(O)C3O)C(C)(C)C2CC1` (centres unmarked) [Compound B, Baiyunoside-3'-sulfate]: in the data set on panel of 4 panelists, the “comment: cooling effect” value is “Shows a remarkable cooling effect”, the “comment: sweetness relative to Baiyunoside” value is “Sweeter”, the “comment: bitterness / off-taste” value was “less bitter” and the “comment: lingering / persistence” value is “less lingering”. Moreover, the “compared to sucrose*” value in the data set on panel of 4 panelists is 3.
`CC1=C(CCc2ccoc2)C2(C)CCC(OC3OC(COS(=O)(=O)O)C(O)C(O)C3O)C(C)(C)C2CC1` (centres unmarked) [Compound C, Baiyunol-3-glucosyl-6'-sulfate]: in the data set with panel of 4 panelists, the “comment: cooling effect” value is “Shows a remarkable cooling effect”, the “comment: sweetness relative to Baiyunoside” value is “Sweeter”, the “comment: bitterness / off-taste” value is given as “less bitter” and the “comment: lingering / persistence” value was “less lingering”. The “compared to sucrose*” value with panel of 4 panelists is reported as 3.
In the case of `C[C@H](CC[C@@H](O[C@@H]1O[C@H](CO[C@@H]2O[C@H](CO)[C@@H](O)[C@H](O)[C@H]2O)[C@@H](O)[C@H](O)[C@H]1O[C@@H]1O[C@H](CO)[C@@H](O)[C@H](O)[C@H]1O)C(C)(C)O)[C@H]1CC[C@@]2(C)[C@@H]3CC=C4[C@@H](CC[C@H](O[C@@H]5O[C@H](CO)[C@@H](O[C@@H]6O[C@H](CO)[C@@H](O)[C@H](O)[C@H]6O)[C@H](O)[C@H]5O)C4(C)C)[C@]3(C)[C@H](O)C[C@]12C` [iso-mogroside V], the “sweetness relative to sucrose” value in data set [1] is above 100 x.
As for `C[C@H](CC[C@@H](O[C@@H]1O[C@H](CO[C@@H]2O[C@H](CO)[C@@H](O)[C@H](O)[C@H]2O)[C@@H](O)[C@H](O)[C@H]1O[C@@H]1O[C@H](CO)[C@@H](O)[C@H](O)[C@H]1O)C(C)(C)O)[C@H]1CC[C@@]2(C)[C@@H]3CC=C4[C@@H](CC[C@H](O[C@@H]5O[C@H](CO[C@@H]6O[C@H](CO)[C@@H](O)[C@H](O)[C@H]6O)[C@@H](O)[C@H](O)[C@H]5O)C4(C)C)[C@]3(C)[C@H](O)C[C@]12C` [mogroside V], the “sweetness relative to sucrose” value in data set [1] is above 100 x.
As for “Baiyunol-3-(2'-arabinopyranosyl)-glucoside [Compound D]”, in data set [2], the solubility entry is on record as “not completely soluble but better soluble than Baiyunoisde”. For the same compound, in the data set on panel of 4 panelists, the “comment: cooling effect” value is listed as “Shows a remarkable cooling effect”, the “comment: sweetness relative to Baiyunoside” value is recorded as “Sweeter”, the “comment: bitterness / off-taste” value is given as “as bitter as Baiyunoside” and the “comment: lingering / persistence” value is reported as “less lingering”. Besides, the “compared to sucrose*” value in the data set with panel of 4 panelists came out at 3.
Baiyunoside [reference compound]: the solubility result in data set [2] is “not completely soluble”. Also, in the data set on panel of 4 panelists, the “comment: bitterness / off-taste” value was “bitter and licorice off-taste”; the “comment: lingering / persistence” value is “very long lingering and persistent sweet taste”. The “sweetness compared with the sucrose solution (in words)” value with panel of 4 panelists (Baiyunoside solution at nominal 0.4 mg/ml, not completely dissolved, vs sucrose 20 mg/ml) is reported as “comparable to the sweetness of the sucrose solution”. For the same compound, in data set [3], the duration of sweetness result is “more than one h” and the “sweetness relative to sucrose” value was “about 500 times”.
